Key:
T-24 = test: cells; assay type: functional, cell-based; conditions: Homo sapiens;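 further: growth inhibition of T-24 cells, read out with a cell viability assay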
Description: SANGER: Inhibition of human T-24 cell growth in a cell viability assay.

HN = test: cells; assay type: functional, cell-based; conditions: Homo sapiens
Description: SANGER: Inhibition of human HN cell growth in a cell viability assay.

CAL-39 = test: cells; assay type: functional, cell-based; conditions: Homo sapiens;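 further: cell viability assay measuring growth inhibition of CAL-39 cells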
Description: SANGER: Inhibition of human CAL-39 cell growth in a cell viability assay.

HCC1954 = test: cells; assay type: functional, cell-based; conditions: Homo sapiens;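 further: growth inhibition of human HCC1954 cells, read out with a cell viability assay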
Description: SANGER: Inhibition of human HCC1954 cell growth in a cell viability assay.

SW1990 = test: cells; assay type: functional, cell-based; conditions: Homo sapiens
Description: SANGER: Inhibition of human SW1990 cell growth in a cell viability assay.

NCI-H1437 = test: cells; assay type: functional, cell-based; conditions: Homo sapiens;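 further: growth inhibition of human NCI-H1437 cells, read out by a cell viability assay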
Description: SANGER: Inhibition of human NCI-H1437 cell growth in a cell viability assay.

HuP-T3 = test: cells; assay type: functional, cell-based; conditions: Homo sapiens;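 further: HuP-T3 cell growth inhibition, read out with a cell viability assay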
Description: SANGER: Inhibition of human HuP-T3 cell growth in a cell viability assay.

MDA-MB-157 = test: cells; assay type: functional, cell-based; conditions: Homo sapiens
Description: SANGER: Inhibition of human MDA-MB-157 cell growth in a cell viability assay.

A-427 = test: cells; assay type: functional, cell-based; conditions: Homo sapiens;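 further: growth inhibition of human A-427 cells, read out by a cell viability assay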
Description: SANGER: Inhibition of human A427 cell growth in a cell viability assay.

CHP-126 = test: cells; assay type: functional, cell-based, Homo sapiens; conditions: Homo sapiens, CHP-126
Description: SANGER: Inhibition of human CHP-126 cell growth in a cell viability assay.

Raji = test: cells; assay type: functional, cell-based, Homo sapiens; conditions: Homo sapiens, Raji;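 further: cell viability assay measuring inhibition of Raji cell growth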
Description: SANGER: Inhibition of human Raji cell growth in a cell viability assay.

MDA-MB-134-VI = test: cells; assay type: functional, cell-based, Homo sapiens; conditions: Homo sapiens, MDA-MB-134-VI
Description: SANGER: Inhibition of human MDA-MB-134-VI cell growth in a cell viability assay.

LCLC-103H cell line = test: cells; assay type: functional, cell-based; conditions: Homo sapiens
Description: SANGER: Inhibition of human LCLC-103H cell growth in a cell viability assay.

MEL-HO = test: cells; assay type: functional, cell-based; conditions: Homo sapiens
Description: SANGER: Inhibition of human MEL-HO cell growth in a cell viability assay.

MC-IXC = test: cells; assay type: functional, cell-based; conditions: Homo sapiens;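 further: growth inhibition of MC-IXC cells, read out with a cell viability assay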
Description: SANGER: Inhibition of human MC-IXC cell growth in a cell viability assay.

NCI-H2141 = test: cells; assay type: functional, cell-based, Homo sapiens; conditions: Homo sapiens, NCI-H2141;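 further: growth inhibition of human NCI-H2141 cells, read out with a cell viability assay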
Description: SANGER: Inhibition of human NCI-H2141 cell growth in a cell viability assay.

HCC1395 = test: cells; assay type: functional, cell-based; conditions: Homo sapiens;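 further: growth inhibition of HCC1395 cells, read out by a cell viability assay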
Description: SANGER: Inhibition of human HCC1395 cell growth in a cell viability assay.

HuCCT-1 = test: cells; assay type: functional, cell-based, HuCCT1; conditions: Homo sapiens;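 further: growth inhibition of HuCCT-1 cells, read out by a cell viability assay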
Description: SANGER: Inhibition of human HuCCT1 cell growth in a cell viability assay.

A204 = test: cells; assay type: functional, cell-based; conditions: Homo sapiens;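 further: growth inhibition of human A204 cells, read out with a cell viability assay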
Description: SANGER: Inhibition of human A204 cell growth in a cell viability assay.

GAMG = test: cells; assay type: functional, cell-based; conditions: Homo sapiens;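 further: cell growth inhibition measured by a viability assay in the GAMG human cell line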
Description: SANGER: Inhibition of human GAMG cell growth in a cell viability assay.

KYSE-270 = test: cells; assay type: functional, cell-based; conditions: Homo sapiens;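 further: cell growth inhibition measured with a viability assay in the human KYSE-270 line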
Description: SANGER: Inhibition of human KYSE-270 cell growth in a cell viability assay.

NCI-H524 = test: cells; assay type: functional, cell-based, Homo sapiens; conditions: Homo sapiens, NCI-H524;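 further: growth inhibition of human NCI-H524 cells, read out through a cell viability assay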
Description: SANGER: Inhibition of human NCI-H524 cell growth in a cell viability assay.

HCT-15 = test: cells; assay type: functional, cell-based; conditions: Homo sapiens;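 further: cell viability readout, IC50 reflecting suppression of HCT-15 cell growth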
Description: SANGER: Inhibition of human HCT-15 cell growth in a cell viability assay.

SCLC-21H = test: cells; assay type: functional, cell-based, Homo sapiens; conditions: Homo sapiens, SCLC-21H;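 further: growth inhibition of cultured human SCLC-21H cells, read out with a cell viability assay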
Description: SANGER: Inhibition of human SCLC-21H cell growth in a cell viability assay.

FaDu = test: cells; assay type: functional, cell-based; conditions: Homo sapiens;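 further: cell viability readout of growth inhibition in FaDu cells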
Description: SANGER: Inhibition of human FADU cell growth in a cell viability assay.

SW1463 = test: cells; assay type: functional, cell-based; conditions: Homo sapiens;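 further: growth inhibition of SW1463 cells, determined with a cell viability assay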
Description: SANGER: Inhibition of human SW1463 cell growth in a cell viability assay.

CAPAN-1 = test: cells; assay type: functional, cell-based; conditions: Homo sapiens;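 further: growth suppression of CAPAN-1 cells, read out by a cell viability assay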
Description: SANGER: Inhibition of human CAPAN-1 cell growth in a cell viability assay.

ARH-77 = test: cells; assay type: functional, cell-based, Homo sapiens; conditions: Homo sapiens, ARH-77;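 further: growth inhibition of ARH-77 cells, read out by a cell viability assay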
Description: SANGER: Inhibition of human ARH-77 cell growth in a cell viability assay.

COR-L279 = test: SANGER: Inhibition of human COR-L279 cell growth in a cell viability assay.; assay type: functional, cell-based; conditions: Homo sapiens, COR-L279
NCI-H1703 = test: cells; assay type: functional, cell-based; conditions: Homo sapiens;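 further: growth inhibition of NCI-H1703 cells, read out via a cell viability assay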
Description: SANGER: Inhibition of human NCI-H1703 cell growth in a cell viability assay.

EFO-27 = test: cells; assay type: functional, cell-based; conditions: Homo sapiens;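 further: growth inhibition of EFO-27 cells, read out with a cell viability assay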
Description: SANGER: Inhibition of human EFO-27 cell growth in a cell viability assay.

RMG-I = test: cells; assay type: functional, cell-based; conditions: Homo sapiens;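 further: growth inhibition of human RMG-I cells, read out with a cell viability assay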
Description: SANGER: Inhibition of human RMG-I cell growth in a cell viability assay.

U-251 = test: cells; assay type: functional, cell-based; conditions: Homo sapiens;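 further: growth inhibition of human U-251 cells, read out through a cell viability assay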
Description: SANGER: Inhibition of human U251 cell growth in a cell viability assay.

NY = test: cells; assay type: functional, cell-based; conditions: Homo sapiens
Description: SANGER: Inhibition of human NY cell growth in a cell viability assay.

HLE = test: cells; assay type: functional, cell-based; conditions: Homo sapiens;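 further: growth inhibition of human HLE cells, read out by a cell viability assay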
Description: SANGER: Inhibition of human HLE cell growth in a cell viability assay.

SNU-16 = test: cells; assay type: functional, cell-based, Homo sapiens; conditions: Homo sapiens, SNU-16;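 further: growth inhibition of human SNU-16 cells, determined with a cell viability readout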
Description: SANGER: Inhibition of human NCI-SNU-16 cell growth in a cell viability assay.

HGC-27 = test: cells; assay type: functional, cell-based; conditions: Homo sapiens;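 further: growth inhibition of human HGC-27 cells, read out in a cell viability assay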
Description: SANGER: Inhibition of human HGC-27 cell growth in a cell viability assay.

CAMA-1 = test: cells; assay type: functional, cell-based; conditions: Homo sapiens;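 further: growth inhibition of CAMA-1 cells, read out with a cell viability assay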
Description: SANGER: Inhibition of human CAMA-1 cell growth in a cell viability assay.

NCI-H522 = test: cells; assay type: functional, cell-based; conditions: Homo sapiens;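 further: cell viability assay measuring growth inhibition of human NCI-H522 cells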
Description: SANGER: Inhibition of human NCI-H522 cell growth in a cell viability assay.

NCI-H510A = test: cells; assay type: functional, cell-based, Homo sapiens; conditions: Homo sapiens, NCI-H510A;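 further: growth inhibition of NCI-H510A cells, read out with a cell viability assay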
Description: SANGER: Inhibition of human NCI-H510A cell growth in a cell viability assay.

MKN-1 = test: cells; assay type: functional, cell-based; conditions: Homo sapiens;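 further: growth inhibition of human MKN1 cells, read out by a cell viability measurement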
Description: SANGER: Inhibition of human MKN1 cell growth in a cell viability assay.

RD = test: cells; assay type: functional, cell-based; conditions: Homo sapiens
Description: SANGER: Inhibition of human RD cell growth in a cell viability assay.

NCI-H1882 = test: cells; assay type: functional, cell-based, Homo sapiens; conditions: Homo sapiens, NCI-H1882;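 further: growth inhibition of the cell line, determined with a viability assay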
Description: SANGER: Inhibition of human NCI-H1882 cell growth in a cell viability assay.

MKN-45 = test: cells; assay type: functional, cell-based; conditions: Homo sapiens;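 further: growth inhibition of human MKN-45 cells, measured with a cell viability assay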
Description: SANGER: Inhibition of human MKN45 cell growth in a cell viability assay.

SW780 = test: cells; assay type: functional, cell-based; conditions: Homo sapiens;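 further: growth inhibition of the cells, read out with a cell viability assay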
Description: SANGER: Inhibition of human SW780 cell growth in a cell viability assay.

Daudi = test: cells; assay type: functional, cell-based, Homo sapiens; conditions: Homo sapiens, Daudi;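 further: growth inhibition of Daudi cells, read out by a viability assay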
Description: SANGER: Inhibition of human Daudi cell growth in a cell viability assay.

SW626 = test: cells; assay type: functional, cell-based; conditions: Homo sapiens;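 further: growth inhibition of SW626 cells, measured with a cell viability assay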
Description: SANGER: Inhibition of human SW626 cell growth in a cell viability assay.

HTC-C3 = test: cells; assay type: functional, cell-based; conditions: Homo sapiens;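 further: inhibition of cell growth, read out with a cell viability assay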
Description: SANGER: Inhibition of human HTC-C3 cell growth in a cell viability assay.

UO-31 = test: cells; assay type: functional, cell-based; conditions: Homo sapiens
Description: SANGER: Inhibition of human U031 cell growth in a cell viability assay.

NCI-H2405 = test: cells; assay type: functional, cell-based; conditions: Homo sapiens;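 further: growth inhibition of the human cell line, read out with a cell viability assay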
Description: SANGER: Inhibition of human NCI-H2405 cell growth in a cell viability assay.

NCI-H322M = test: cells; assay type: functional, cell-based, Homo sapiens; conditions: Homo sapiens, NCI-H322M;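 further: cell viability assay measuring inhibition of growth of human NCI-H322M cells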
Description: SANGER: Inhibition of human NCI-H322M cell growth in a cell viability assay.

SW1710 = test: cells; assay type: functional, cell-based; conditions: Homo sapiens;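 further: growth inhibition of SW1710 cells, determined with a cell viability assay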
Description: SANGER: Inhibition of human SW1710 cell growth in a cell viability assay.

Calu-3 = test: cells; assay type: functional, cell-based; conditions: Homo sapiens;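 further: growth inhibition of human Calu-3 cells, determined with a cell viability assay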
Description: SANGER: Inhibition of human Calu-3 cell growth in a cell viability assay.

IM-9 = test: SANGER: Inhibition of human IM-9 cell growth in a cell viability assay.; assay type: functional, cell-based; conditions: Homo sapiens, IM-9
NCI-H630 = test: cells; assay type: functional, cell-based; conditions: Homo sapiens;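 further: growth inhibition of NCI-H630 cells, read out with a cell viability assay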
Description: SANGER: Inhibition of human NCI-H630 cell growth in a cell viability assay.

SNU-449 = test: cells; assay type: functional, cell-based; conditions: Homo sapiens
Description: SANGER: Inhibition of human SNU-449 cell growth in a cell viability assay.

C3A = test: cells; assay type: functional, cell-based; conditions: Homo sapiens;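 further: growth inhibition of C3A human cells, quantified with a cell viability readout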
Description: SANGER: Inhibition of human C3A cell growth in a cell viability assay.

NCI-H810 = test: cells; assay type: functional, cell-based; conditions: Homo sapiens;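 further: IC50 reflects inhibition of cancer cell line growth, read out with a cell viability assay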
Description: SANGER: Inhibition of human NCI-H810 cell growth in a cell viability assay.

SIMA = test: cells; assay type: functional, cell-based, Homo sapiens; conditions: Homo sapiens, SIMA;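 further: growth inhibition of SIMA cells, measured with a cell viability readout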
Description: SANGER: Inhibition of human SIMA cell growth in a cell viability assay.

CAL-148 = test: cells; assay type: functional, cell-based, Homo sapiens; conditions: Homo sapiens, CAL-148
Description: SANGER: Inhibition of human CAL-148 cell growth in a cell viability assay.

Which results are given for `COC(=O)[C@H](CCSC)NC(=O)c1ccc(NC[C@@H](N)CS)cc1-c1ccccc1`?
IC50 (T-24): > 1020 nM; IC50 (HN): > 1020 nM; IC50 (CAL-39): > 1020 nM; IC50 (HCC1954): > 1020 nM; IC50 (SW1990): > 1020 nM; IC50 (NCI-H1437): > 1020 nM; IC50 (HuP-T3): > 1020 nM; IC50 (MDA-MB-157): > 1020 nM; IC50 (A-427): > 1020 nM; IC50 (CHP-126): > 1020 nM; IC50 (Raji): > 1020 nM; IC50 (MDA-MB-134-VI): > 1020 nM; IC50 (LCLC-103H cell line): > 1020 nM; IC50 (MEL-HO): > 1020 nM; IC50 (MC-IXC): > 1020 nM; IC50 (NCI-H2141): > 1020 nM; IC50 (HCC1395): > 1020 nM; IC50 (HuCCT-1): > 1020 nM; IC50 (A204): > 1020 nM; IC50 (GAMG): > 1020 nM; IC50 (KYSE-270): > 1020 nM; IC50 (NCI-H524): > 1020 nM; IC50 (HCT-15): > 1020 nM; IC50 (SCLC-21H): > 1020 nM; IC50 (FaDu): > 1020 nM; IC50 (SW1463): > 1020 nM; IC50 (CAPAN-1): > 1020 nM; IC50 (ARH-77): > 1020 nM; IC50 (COR-L279): > 1020 nM; IC50 (NCI-H1703): > 1020 nM; IC50 (EFO-27): > 1020 nM; IC50 (RMG-I): > 1020 nM; IC50 (U-251): > 1020 nM; IC50 (NY): > 1020 nM; IC50 (HLE): > 1020 nM; IC50 (SNU-16): > 1020 nM; IC50 (HGC-27): > 1020 nM; IC50 (CAMA-1): > 1020 nM; IC50 (NCI-H522): > 1020 nM; IC50 (NCI-H510A): > 1020 nM; IC50 (MKN-1): > 1020 nM; IC50 (RD): > 1020 nM; IC50 (NCI-H1882): > 1020 nM; IC50 (MKN-45): > 1020 nM; IC50 (SW780): > 1020 nM; IC50 (Daudi): > 1020 nM; IC50 (SW626): > 1020 nM; IC50 (HTC-C3): > 1020 nM; IC50 (UO-31): > 1020 nM; IC50 (NCI-H2405): > 1020 nM; IC50 (NCI-H322M): > 1020 nM; IC50 (SW1710): > 1020 nM; IC50 (Calu-3): > 1020 nM; IC50 (IM-9): > 1020 nM; IC50 (NCI-H630): > 1020 nM; IC50 (SNU-449): > 1020 nM; IC50 (C3A): > 1020 nM; IC50 (NCI-H810): > 1020 nM; IC50 (SIMA): > 1020 nM; IC50 (CAL-148): > 1020 nM

What does the source list for `Cc1ccc(-n2nc(C(C)(C)C)cc2NC(=O)Nc2ccc(OCCN3CCOCC3)c3ccccc23)cc1` [DORAMAPIMOD]?
IC50 (T-24): 8410 nM; IC50 (HN): > 10000 nM; IC50 (CAL-39): > 10000 nM; IC50 (HCC1954): > 10000 nM; IC50 (SW1990): > 10000 nM; IC50 (NCI-H1437): > 10000 nM; IC50 (HuP-T3): > 10000 nM; IC50 (MDA-MB-157): > 10000 nM; IC50 (A-427): > 10000 nM; IC50 (LCLC-103H cell line): > 10000 nM; IC50 (MEL-HO): > 10000 nM; IC50 (MC-IXC): > 10000 nM; IC50 (HCC1395): > 10000 nM; IC50 (HuCCT-1): > 10000 nM; IC50 (A204): > 10000 nM; IC50 (GAMG): > 10000 nM; IC50 (KYSE-270): > 10000 nM; IC50 (HCT-15): > 10000 nM; IC50 (FaDu): > 10000 nM; IC50 (SW1463): > 10000 nM; IC50 (CAPAN-1): > 10000 nM; IC50 (NCI-H1703): > 10000 nM; IC50 (EFO-27): > 10000 nM; IC50 (RMG-I): > 10000 nM; IC50 (U-251): > 10000 nM; IC50 (NY): > 10000 nM; IC50 (HLE): > 10000 nM; IC50 (HGC-27): > 10000 nM; IC50 (CAMA-1): > 10000 nM; IC50 (NCI-H522): > 10000 nM; IC50 (MKN-1): > 10000 nM; IC50 (RD): > 10000 nM; IC50 (MKN-45): > 10000 nM; IC50 (SW780): > 10000 nM; IC50 (SW626): > 10000 nM; IC50 (HTC-C3): > 10000 nM; IC50 (UO-31): > 10000 nM; IC50 (NCI-H2405): > 10000 nM; IC50 (SW1710): > 10000 nM; IC50 (Calu-3): > 10000 nM; IC50 (NCI-H630): > 10000 nM; IC50 (SNU-449): > 10000 nM; IC50 (C3A): > 10000 nM; IC50 (NCI-H810): > 10000 nM

What does the source list for `C/C(=C\c1csc(C)n1)[C@@H]1C[C@@H]2O[C@]2(C)CCC[C@H](C)[C@H](O)[C@@H](C)C(=O)C(C)(C)[C@@H](O)CC(=O)O1` [PATUPILONE]?
IC50 (T-24): 20.6 nM; IC50 (HN): > 32 nM; IC50 (CAL-39): 0.411 nM; IC50 (HCC1954): 9.19 nM; IC50 (SW1990): > 32 nM; IC50 (NCI-H1437): 0.689 nM; IC50 (HuP-T3): 3.81 nM; IC50 (MDA-MB-157): > 32 nM; IC50 (A-427): 0.828 nM; IC50 (CHP-126): > 32 nM; IC50 (Raji): > 32 nM; IC50 (MDA-MB-134-VI): > 32 nM; IC50 (LCLC-103H cell line): 0.31 nM; IC50 (MEL-HO): 1.69 nM; IC50 (MC-IXC): 3.06 nM; IC50 (NCI-H2141): 13.7 nM; IC50 (HCC1395): > 32 nM; IC50 (HuCCT-1): 2.61 nM; IC50 (A204): 3.12 nM; IC50 (GAMG): 1.78 nM; IC50 (KYSE-270): 0.445 nM; IC50 (NCI-H524): 23.1 nM; IC50 (HCT-15): 0.717 nM; IC50 (SCLC-21H): 7.59 nM; IC50 (FaDu): 26.2 nM; IC50 (SW1463): > 32 nM; IC50 (CAPAN-1): 4 nM; IC50 (ARH-77): 6.13 nM; IC50 (COR-L279): 9.27 nM; IC50 (NCI-H1703): 7.76 nM; IC50 (EFO-27): 1.69 nM; IC50 (RMG-I): > 32 nM; IC50 (U-251): 10.8 nM; IC50 (NY): 1.56 nM; IC50 (HLE): 0.0826 nM; IC50 (SNU-16): 31 nM; IC50 (HGC-27): 0.338 nM; IC50 (CAMA-1): 12.9 nM; IC50 (NCI-H522): 0.635 nM; IC50 (NCI-H510A): 11.9 nM; IC50 (MKN-1): 2.65 nM; IC50 (RD): 4.42 nM; IC50 (NCI-H1882): > 32 nM; IC50 (MKN-45): 4.38 nM; IC50 (SW780): > 32 nM; IC50 (Daudi): 24.8 nM; IC50 (SW626): 1.98 nM; IC50 (HTC-C3): 2.94 nM; IC50 (UO-31): 3.12 nM; IC50 (NCI-H2405): 12.7 nM; IC50 (NCI-H322M): > 32 nM; IC50 (SW1710): < 0.125 nM; IC50 (Calu-3): 1.68 nM; IC50 (IM-9): > 32 nM; IC50 (SNU-449): 1.91 nM; IC50 (C3A): 3.42 nM; IC50 (NCI-H810): 0.322 nM; IC50 (SIMA): 19.1 nM; IC50 (CAL-148): 6.26 nM

Source: ChEMBL document CHEMBL1201861, “Genomics of Drug Sensitity in Cancer screening data, Wellcome Trust Sanger Institute”
